From US20230174484A1, “ANTAGONISTS OF GPR39 PROTEIN” (Oregon Health & Science University, priority 2020, published 2023)
Counter-ions that a name gives are not always drawn.

What follows are molecules tested against T1, human GPR39 receptor (Homo sapiens, UniProt O43194) (assay: Measurement of intracellular calcium response in PC3 cells (FLIPR), antagonism of the C3 agonist response). Details: functional pKi (modified Cheng-Prusoff), inhibition of the C3 (TC-G 1008) response at EC90, 30 μM ZnCl2, read-out: fpKi activity.
T1 construct: PC3 Cells, Expressing the Endogenous Human GPR39 Receptor; endogenous in cells; host or cells: PC3 (human prostate adenocarcinoma) cells
T1 sequence (O43194 1-453): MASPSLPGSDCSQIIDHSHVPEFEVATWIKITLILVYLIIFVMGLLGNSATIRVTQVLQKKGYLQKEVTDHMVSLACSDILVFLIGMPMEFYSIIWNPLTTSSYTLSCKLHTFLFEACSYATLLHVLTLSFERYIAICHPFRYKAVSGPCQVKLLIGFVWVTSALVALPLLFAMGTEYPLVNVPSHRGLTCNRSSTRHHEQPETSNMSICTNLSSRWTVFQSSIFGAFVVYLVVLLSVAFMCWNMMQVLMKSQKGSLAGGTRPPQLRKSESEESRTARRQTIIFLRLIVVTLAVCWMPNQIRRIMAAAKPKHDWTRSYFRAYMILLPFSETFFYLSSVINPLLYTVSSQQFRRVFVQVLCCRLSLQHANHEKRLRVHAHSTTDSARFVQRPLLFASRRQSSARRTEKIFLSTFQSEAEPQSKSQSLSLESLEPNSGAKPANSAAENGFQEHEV
Type: cell-based
Procedure, shortened: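 PC3 cells with endogenous human GPR39 were loaded with Calcium-6 and read by FLIPR, with compounds tested in buffer with 30 μM final ZnCl2 and 0.32% DMSO. Peak Ca2+ signal was scored as % inhibition of the EC90 C3 response, fitted by four-parameter logistic. Functional pKi was derived via the modified Cheng-Prusoff equation.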

| Compound | Ki [nM] |
| --- | --- |
| Cc1nnc(-c2ccc(C(=O)N3CCC(F)(F)CC3)c(-n3ccc(C(C)C)n3)c2)[nH]1 [Example 210, (4,4-difluoropiperidin-1-yl)-[4-(5-methyl-4H-1,2,4-triazol-3-yl)-2-(3-propan-2-ylpyrazol-1-yl)phenyl]methanone] | ≤ 50.1 |
| CN1CCn2c(cnc2-c2ccc(NC(=O)C3CC3)cc2N2CCCC2)C1 [Example 103, N-[4-(7-methyl-6,8-dihydro-5H-imidazo[1,5-a]pyrazin-3-yl)-3-pyrrolidin-1-ylphenyl]cyclopropanecarboxamide] | 316 to 1000 |
| CN1CCN(C(=O)c2ccc(NC(=O)C3CC3)cc2-n2cc(C(F)(F)F)cn2)C(c2ccccc2)C1 (stereo not drawn) [Example 207, N-[4-(4-methyl-2-phenylpiperazine-1-carbonyl)-3-[4-(trifluoromethyl)pyrazol-1-yl]phenyl]cyclopropanecarboxamide] | 316 to 1000 |
| O=C(Nc1ccc(C(=O)N2CCN(Cc3cccc(F)c3)CC2)c(N2CCCCCC2)c1)C1CC1 [Example 26, N-(3-(azepan-1-yl)-4-(4-(3-fluorobenzyl)piperazine-1-carbonyl)phenyl) Cyclopropanecarboxamide] | 63.1 to 251 |
| Cn1c(Sc2ccccn2)nnc1-c1ccc(NC(=O)C2CC2)cc1N1CCCC1 [Example 116, N-[4-(4-methyl-5-pyridin-2-ylsulfanyl-1,2,4-triazol-3-yl)-3-pyrrolidin-1-ylphenyl]cyclopropanecarboxamide] | 1260 to 6310 |
| CC1CC(C)CN(c2cc(NC(=O)C3CC3)ccc2C(=O)N2CCN(C)CC2c2ccccc2)C1 (racemic) [Example 68c, Syn N-[3-[3,5-dimethylpiperidin-1-yl]-4-(4-methyl-2-phenylpiperazine-1-carbonyl)phenyl]cyclopropanecarboxamide] | ≤ 50.1 |
| O=C(Nc1ccc(C(=O)N2CC[S+]([O-])CC2c2ccccc2)c(N2CCCC2)c1)C1CC1 (racemic) [Example 169, N-[4-(1-oxo-3-phenyl-1,4-thiazinane-4-carbonyl)-3-pyrrolidin-1-ylphenyl]cyclopropanecarboxamide] | 1260 to 6310 |
| CN1CCN(C(=O)c2ccc(NC(=O)C3CC3)cc2-n2ccc(C(F)(F)F)n2)C(c2ccccc2)C1 (stereo not drawn) [Example 206, N-[4-(4-methyl-2-phenylpiperazine-1-carbonyl)-3-[3-(trifluoromethyl)pyrazol-1-yl]phenyl]cyclopropanecarboxamide] | 63.1 to 251 |
| CC1CC(C)CN(c2cc(NC(=O)C3CC3)ccc2C(=O)N2CCN(C)CC2c2ccccc2)C1 (single isomer, unassigned) [Example 68f, Syn 2R or 2S N-[3-[3,5-dimethylpiperidin-1-yl]-4-(4-methyl-2-phenylpiperazine-1-carbonyl)phenyl]cyclopropanecarboxamide hydrochloride] | ≤ 50.1 |
| O=C(Nc1ccc(C(=O)N2CCS(=O)(=O)CC2)c(N2CCOC(C(F)(F)F)C2)c1)C1CC1 (racemic) [Example 186, N-[4-(1,1-dioxo-1,4-thiazinane-4-carbonyl)-3-[2-(trifluoromethyl)morpholinyl]phenyl]cyclopropanecarboxamide] | 316 to 1000 |
| CN1CCN(C(=O)c2ccc(NC(=O)C3CC3)cc2N2CCCC2)C(c2ccc(F)cc2)C1 (racemic) [Example 89, N-[4-[2-(4-fluorophenyl)-4-methylpiperazine-1-carbonyl]-3-pyrrolidin-1ylphenyl]cyclopropanecarboxamide] | 316 to 1000 |
| O=C(Nc1ccc(C(=O)N2CCOCC2)c(N2CCCCCC2)c1)C1CC1 [Example 45, N-(3-(azepan-1-yl)-4-(morpholine-4-carbonyl)phenyl)cyclopropanecarboxamide] | 316 to 1000 |
| O=C(Nc1ccc(C(=O)N2CCC(C(F)(F)F)CC2)c(N2CCCC2)c1)C1CC1 [Example 61, N-[3-pyrrolidin-1-yl-4-[4-(trifluoromethyl)piperidine-1-carbonyl]phenyl]cyclopropanecarboxamide] | 63.1 to 251 |
| O=C(Nc1ccc(C(=O)N2CCC(F)(F)CC2)c(N2CCCC2)c1)C1CC1 [Example 59, N-[4-(4,4-difluoropiperidine-1-carbonyl)-3-pyrrolidin-1-ylphenyl]cyclopropanecarboxamide] | 63.1 to 251 |
| O=C(Nc1ccc(C(=O)N2CCN(c3cccnc3)CC2)c(N2CCCCCC2)c1)C1CC1 [Example 51, N-(3-(azepan-1-yl)-4-(4-(pyridin-3-yl)piperazine-1-carbonyl)phenyl) Cyclopropanecarboxamide] | 63.1 to 251 |
| O=C(Nc1ccc(C(=O)N2CCc3ccccc3C2)c(N2CCCCCC2)c1)C1CC1 [Example 21, N-(3-(azepan-1-yl)-4-(1,2,3,4-tetrahydroisoquinoline-2-carbonyl)phenyl) cyclopropanecarboxamide] | 316 to 1000 |

The remaining lines, values ahead:

| Ki [nM] | Compound |
| --- | --- |
| ≤ 50.1 | CN1CCN(C(=O)c2ccc(NC(=O)C3CC3)cc2N2CCCC2)C(c2ccccc2Cl)C1 (single isomer, unassigned) [Example 170a, (2R or 2S) N-[4-[2-(2-chlorophenyl)-4-methylpiperazine-1-carbonyl]-3-pyrrolidin-1-ylphenyl] cyclopropanecarboxamide] |
| ≤ 50.1 | Cc1nnc(-c2ccc(C(=O)N3CCN(C)CC3c3ccccc3)c(N3CCC(C(F)(F)F)C3)c2)[nH]1 (single isomer, unassigned) [Example 177c, (2S, 3R) or (2R, 3S) or (2R, 3R) or (2S, 3S) (4-methyl-2-phenylpiperazin-1-yl)-[4-(5-methyl-4H-1,2,4-triazol-3-yl)-2-[3-(trifluoromethyl)pyrrolidin-1-yl]phenyl]methanone] |
| 1260 to 6310 | Cc1nnc(-c2ccc(C(=O)N3CCN(C)CC3c3ccccc3)c(N3CCCC3)c2)[nH]1 (single isomer, unassigned) [Example 150b, (2R or 2S) (4-methyl-2-phenylpiperazin-1-yl)-[4-(5-methyl-4H-1,2,4-triazol-3-yl)-2-pyrrolidin-1-ylphenyl]methanone] |
| 63.1 to 251 | CN1CCN(C(=O)c2ccc(-c3nnc(C4CC4)[nH]3)cc2N2CCCC2)C(c2ccccc2)C1 (racemic) [Example 151c, [4-(5-cyclopropyl-4H-1,2,4-triazol-3-yl)-2-pyrrolidin-1-ylphenyl]-(4-methyl-2phenylpiperazin-1-yl)methanone] |
| 63.1 to 251 | CN1CCN(C(=O)c2ccc(NC(=O)C3CC3)cc2N2CCCC2)C(c2ccccc2F)C1 (single isomer, unassigned) [Example 84a, N-[4-[2-(2-fluorophenyl)-4-methylpiperazine-1-carbonyl]-3-pyrrolidin-1-ylphenyl]cyclopropanecarboxamide] |
| 1260 to 6310 | CCCN1CCN(C(=O)c2ccc(NC(=O)C3CC3)cc2N2CCCCCC2)C(c2ccccc2)C1 (single isomer, unassigned) [Example 73b, N-[3-(azepan-1-yl)-4-(2-phenyl-4-propylpiperazine-1-carbonyl)phenyl]Cyclopropanecarboxamide] |
| ≤ 50.1 | CN1CCN(C(=O)c2ccc(NC(=O)C3CC3)cc2N2CCC(C(F)(F)F)C2)C(c2ccccc2)C1 (single isomer, unassigned) [Example 199e, (2S, 3R) or (2R, 3S) or (2R, 3R) or (2S, 3S) N-[4-(4-methyl-2-phenylpiperazine-1-carbonyl)-3-[3-(trifluoromethyl)pyrrolidin-1-yl]phenyl]cyclopropanecarboxamide hydrochloride] |
| 63.1 to 251 | O=C(Nc1ccc(C(=O)N2CCC3(CC2)COC3)c(N2CCC(C(F)(F)F)C2)c1)C1CC1 (single isomer, unassigned) [Example 213b] |
